The target of this assay is T1, rSmSP2 (SmSP2, serine protease 2; recombinant protease domain) (Schistosoma mansoni, UniProt V5UMR3).
T1 construct: gene SP2; about 28 kDa on SDS-PAGE, active form
Nature of the assay: fluorogenic kinetic assay, residual P-F-R-AMC hydrolysis. The assay is classed as biochemical. An excerpt:
fluorogenic kinetic assay, residual P-F-R-AMC hydrolysis on rSmSP2 (SmSP2, serine protease 2; recombinant protease domain)

The values below come from publication PMC5931690, “SmSP2: A serine protease secreted by the blood fluke pathogen Schistosoma mansoni with anti-hemostatic properties” (PLoS Neglected Tropical Diseases, 2018).

Molecules are shown by their SMILES. *1 amine or outer side, *2 acyl side, *3 side chain or, on linkers, in order; H or OH if unused. Where a SMILES comes first, the peptide text is derived from it. CO = O=C([*:1])[*:2]

T1 sequence (V5UMR3 entry or part of it): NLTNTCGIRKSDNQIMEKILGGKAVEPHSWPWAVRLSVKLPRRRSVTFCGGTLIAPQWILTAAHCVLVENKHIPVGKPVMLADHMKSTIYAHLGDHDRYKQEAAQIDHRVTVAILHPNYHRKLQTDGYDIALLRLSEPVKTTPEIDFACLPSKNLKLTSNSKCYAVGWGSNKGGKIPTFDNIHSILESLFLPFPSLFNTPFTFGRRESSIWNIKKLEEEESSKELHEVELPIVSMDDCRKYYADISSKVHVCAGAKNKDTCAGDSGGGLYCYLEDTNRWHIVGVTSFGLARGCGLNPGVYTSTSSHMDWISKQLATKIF

As to `O=c1oc(Cl)c(Cl)c2ccccc12`, the inhibition at 100 µM (read-out: Inhibition (%)^c) came to 71.4 ± 3.3%.
In the case of `CC(C)[C@H](NC(=O)[C@H](CCCNC(=N)N)NC(=O)N[C@@H](Cc1ccccc1)C(=O)O)C(=O)N[C@H](C=O)CCCNC(=N)N` [Antipain] ({Phe-CO}-Arg-Val-Arg-aldehyde), the inhibition at 20 µM (read-out: Inhibition (%)^c) worked out at 100%.
Take `N=C(N)c1ccccc1` [Benzamidine]: the inhibition at 1000 µM (read-out: Concentration) was 100%.
On to `CC(=O)N[C@@H](CC(C)C)C(=O)N[C@@H](CC(C)C)C(=O)N[C@H](C=O)CCCNC(=N)N` [Leupeptin, N-acetyl-L-leucyl-L-leucyl-L-argininal], for which, where the note is “read-out: Inhibition (%)^c”, the inhibition at 20 µM came to 100%.
Turning to `NCCc1ccc(S(=O)(=O)F)cc1` [Pefabloc SC], the percent inhibition (1000 µM, 50 μM P-F-R-AMC, 0.1 M Tris-HCl pH 8.0, 37 °C, 10 min preincubation, covalent) turned out to be 100%.
